The subject of the test is ERK phosphorylation in PC3-101P3A11 cells. As to the kind of experiment: ERK phosphorylation in PC3-101P3A11 and PC3-neo cells (anti-Phospho-ERK Western blot). It counts as cell-based, human. Particulars: PC3-101P3A11 cells. The procedure: Using Western blotting and other techniques, the ability of 101P3A11 to regulate these pathways is confirmed. Cells expressing or lacking 101P3A11 are either left untreated or stimulated with cytokines, androgen and anti-integrin antibodies. Cell lysates were analyzed using anti-phospho-specific antibodies (Cell Signaling, Santa Cruz Biotechnology) in order to detect phosphorylation and regulation of ERK, p38, AKT, PI3K, PLC and other signaling molecules. […] In the experiment, data shown in FIG. 26, control 3T3-neo and 3T3-101P3A11 cells were either treated with 0.5 or 10% FBS and whole cell lysates were analyzed by anti-phosphotyrosine Western blotting.
In this experiment, control PC3-neo cells and PC3-101P3A11 cells were left untreated (0.1% FBS) or were stimulated with 10% FBS, lipophosphatidic acid (LPA), gastrin releasing peptide (GRP), leukotriene (LKB4) or platelet activating factor (PAF). The cells were lysed and analyzed by Western blotting using anti-Phospho-ERK (FIG. 27A) or anti-ERK (FIG. 27B) mAb. […] In order to delineate the signaling pathway by which 101P3A11 mediates ERK phosphorylation in cancer cells, it was confirmed which of the two pathway inhibitors: MEK inhibitor PD98059 or the p38 inhibitor SB203580 regulate 101P3A11 mediated ERK phosphorylation (FIG. 28). […] Cells were lysed and analyzed by Western blotting using anti-Phospho-ERK or anti-ERK mAb. Treatment with 10% FBS or with GRP induced the phosphorylation of ERK in PC3-101P3A11 but not in control PC3-neo cells. 101P3A11-mediated ERK phosphorylation was inhibited by the MEK-1 inhibitor PD98059 but not the p38 inhibitor SB203580 or genistein.
Results in FIGS. 26-28 indicate that 101P3A11 regulates the activity of kinases, including ERK, and phosphatases. In order to confirm the association of 101P3A11 with phosphatase activity, the effect of the protein phosphatase inhibitor sodium orthovanadate on 101P3A11 mediated ERK phosphorylation was determined (FIG. 29). PC3-neo and PC3-101P3A11 cells were grown in media alone or in the presence of sodium orthovanadate (Na3VO4), and were stimulated with 0.1% or 10% FBS. Cells were lysed and analyzed by Western blotting using anti-Phospho-ERK or anti-ERK mAb. […] Results in FIG. 29 confirm the contribution of protein phosphatases to 101P3A11 mediated signaling.
In order to determine whether 101P3A11 signaling results in the activation of EGFR, we compared the effect of the EGFR inhibitor, AG1517, on EGFR- and 101P3A11-mediated ERK phosphorylation (FIG. 30). In FIG. 30, PC3-neo and PC3-101P3A11 cells were grown in media alone (0.1% FBS) or in the presence of AG1517. The cells were stimulated with 0.1% or 10% FBS, GRP or EGF, lysed and analyzed by Western blotting using anti-Phospho-ERK or anti-ERK mAb. Treatment with 10% FBS, GRP and EGF induced ERK phosphorylation in PC3-101P3A11 cells. […] Data in FIG. 30 indicate that some cross talk occurred between 101P3A11 and EGFR signaling pathways.
Since adenylate cyclase activity modulates intracellular levels of cAMP and induce downstream signaling events such as activation of protein kinase A, calcium and ERK MAPK signaling (Pierce K. L., et al, Oncogene. 2001, 20: 1532), we determined that PTX, an inhibitor of adenylate cyclase signaling, prevents 101P3A11-mediated ERK phosphorylation along with inhibiting cAMP accumulation (FIG. 33 and FIG. 34). PC3-neo and PC3-101P3A11 cells were grown overnight in 0.1% FBS in media alone or in the presence of pertussis toxin (PTX). Cells were stimulated with 0.1% or 10% FBS (FIG. 33) or 10% FBS, EGF or GRP (FIG. 34). Cells were lysed and analyzed by Western blotting using anti-Phospho-ERK mAb. Expression of 101P3A11 mediated ERK phosphorylation by 10% FBS in PC3 cells, which was inhibited by PTX (FIG. 33 and FIG. 34).
GPCR transmit their signal by activating trimeric G proteins. […]

For the substance pertussis toxin [PTX], the “inhibition of FBS-mediated ERK phosphorylation” value (10% FBS) is recorded as “inhibited”. The “effect on GRP and EGF-mediated ERK phosphorylation” value (GRP or EGF) is “relatively unaffected”.

Values taken from patent US8236510B2, “Protein showing enhanced expression in cancer cells” (Agensys, Inc., priority 1999, dated 2012).
